For data set [1] the following is noted: cited from earlier work.
Data set [2] can be described thus: In vitro drug release from pessaries, USP Method XXIII Apparatus 2. In kind it is physicochemical. To be noted: 37° C., 50 rpm. As for the experimental part:
The drug loaded polymer were analysed for in vitro drug release following USP Method XXIII, Apparatus 2 at 37° C., with 50 rpm paddle speed. Drug release was analysed by ultraviolet spectroscopy or high pressure liquid chromatography (HPLC) as appropriate.
Rate of drug release k values of each dissolution profile was determined by calculating the slope of graph % drug release versus square root time. All the linear relationship between % drug release and square root time has R^2 correlation value […].

Setting [3] is: from A03003 (CLP) cross-linked polymer pessaries.
Setting [4] is: from A03030 (LP) linear polymer pessaries.
Where [5] appears, read: from A03032 (LP) linear polymer pessaries.

Each structure is given as a SMILES string.

Regarding `CCCCC(C)(O)C/C=C/[C@H]1[C@H](O)CC(=O)[C@@H]1CCCCCCC(=O)OC` (mixture of isomers) [MIS, misoprostol], the “Drug solubility (in water), in words” value in data set [1] is listed as “Insoluble”.
As for `CC[C@H](C)[C@@H]1NC(=O)[C@H](Cc2ccc(O)cc2)NC(=O)[C@@H](N)CSSC[C@@H](C(=O)N2CCC[C@H]2C(=O)N[C@@H](CC(C)C)C(=O)NCC(N)=O)NC(=O)[C@H](CC(N)=O)NC(=O)[C@H](CCC(N)=O)NC1=O` [OXY, Oxytocin], the “Rate of drug release, k” value in data set [2] (setting [3]) is reported as 6.749 minute^−0.5; in data set [2] (setting [4]), 7.875 minute^−0.5; in data set [2] (setting [5]) it was 7.85 minute^−0.5.
As to `CC(=O)[C@H]1CC[C@H]2[C@@H]3CCC4=CC(=O)CC[C@]4(C)[C@H]3CC[C@]12C` [PRO, Progesterone], the “Rate of drug release, k” value in data set [2] (setting [3]) came to 2.414 minute^−0.5; in data set [2] (from A03033 (LP) linear polymer pessaries), 1.256 minute^−0.5. In addition, the “Drug solubility (in water), in words” value in data set [1] is listed as “Insoluble”.
On to `CC(C)(C)NCC(O)c1cc(O)cc(O)c1` (centres unmarked) [TBS, Terbutaline sulphate], for which the figures for the “Rate of drug release, k” value in data set [2] (setting [3]), in data set [2] (setting [4]) and in data set [2] (setting [5]) were 13.628 minute^−0.5, 13.262 minute^−0.5 and 11.954 minute^−0.5, respectively. Also, the “Drug solubility (in water), in words” value in data set [1] is listed as “Soluble”.

Source of the values: patent publication US9987364B2, “Water-swellable polymers” (Ferring B.V., priority 2002, dated 2018).
